Structures are written as SMILES. Activity calls are given as the source filed them. The rule behind the calls is not given here.

The values below come from PubChem BioAssay AID1552 (Sanford-Burnham Center for Chemical Genomics, 2009).

In this assay the target is Ubiquitin-conjugating enzyme E2 N (Homo sapiens) (UniProt P61088). Nature of the assay: NMR detection of UBE2N ligand binding – biophysical, purified protein (AID 1552). The following applies: NMR binding to purified UBE2N.
Chain of Ubiquitin-conjugating enzyme E2 N (Homo sapiens) (P61088 whole entry, looked up): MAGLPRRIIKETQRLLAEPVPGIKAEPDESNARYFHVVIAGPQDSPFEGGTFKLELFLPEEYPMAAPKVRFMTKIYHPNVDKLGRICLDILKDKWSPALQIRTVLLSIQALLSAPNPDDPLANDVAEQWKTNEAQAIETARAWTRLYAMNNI
Regarding `CN(Cc1nc2ccccc2n1C)S(C)(=O)=O`, the Kd (commonly the equilibrium constant for the complex coming apart) was > 4 mM (inactive).
To `Cc1noc(C)c1C(=O)NCc1ccco1` belongs > 4 mM (inactive); to `COc1ccc(C(=O)NCC(=O)O)cc1`, > 4 mM (inactive).
In the case of `CC(C)=CC(=O)Nc1ccc(S(N)(=O)=O)cc1`, the Kd is > 4 mM (inactive).
To `COc1cc2c(cc1OC)C1Cc3ccc(OC)c(OC)c3CN1CC2` (stereo not given) belongs > 4 mM (inactive); to `CC(C)(C)c1cc(N)n[nH]1`, > 4 mM (inactive).
Consider `N#CCSc1nc2ccccc2c(=O)n1-c1ccccc1`, for which the Kd is > 4 mM (inactive).
As to `Cc1ccc2[nH]cc(CCN)c2c1`, the Kd is > 4 mM (inactive).
To `Cn1c(NCc2ccccc2O)nc2ccccc21` belongs > 4 mM (inactive); to `CC(=O)O[C@@H]1CC2C(C)(C)C(=O)C=C[C@]2(C)C2CC[C@@]3(C)[C@H](c4ccoc4)OC(=O)[C@H]4O[C@]43[C@@]21C` (stereo not given in full), > 4 mM (inactive); to `CC1(C)CC2(CCO1)NCCN1C(=O)CSC12` (stereo not given), > 4 mM (inactive).
As to `Nc1nc(O)c(C2=c3cc(Cl)ccc3=NC2=O)s1`, the Kd is > 4 mM (inactive).
In the case of `COc1ccc2c(c1OC)OC[C@@H](c1ccc(OC)c(OC)c1OC)C2`, the Kd was > 4 mM (inactive).
Under `CC(C)=CCC[C@](C)(O)C1CC=C(C)CC1` (stereo not given in full) stands > 4 mM (inactive); under `Cc1occc1C(=O)NC1CCN(C)CC1`, > 4 mM (inactive).
To `COc1cc([C@@H]2c3cc4c(cc3[C@H](O)[C@H]3COC(=O)[C@@H]23)OCO4)cc(OC)c1OC` belongs > 4 mM (inactive); to `N#Cc1nc(-c2cccs2)oc1N1CCOCC1`, > 4 mM (inactive); to `O=C1CCCC(=O)N1c1ccc(O)cc1`, > 4 mM (inactive).
To `CP(C)(=O)c1cccc(C(=O)O)c1` belongs > 4 mM (inactive); to `COc1cc2c(cc1OC)[C@@H]1C(=O)c3ccc4c(c3O[C@@H]1CO2)C=CC(C)(C)O4`, > 4 mM (inactive); to `COc1cccc(Oc2ccc(N)cc2)c1`, > 4 mM (inactive).
For the compound `O=C(NCc1ccccn1)c1ccc(Br)s1`, the Kd is > 4 mM (inactive).
In the case of `Cc1n[nH]c(=O)c2ncn(C)c12`, the Kd is > 4 mM (inactive).
To `CC(=O)Nc1ccc(NC(=O)N2CCOCC2)cc1` belongs > 4 mM (inactive); to `COCC(=O)/C=C1\Sc2ccccc2N1C`, > 4 mM (inactive).
To `O=c1[nH]nc(Cc2ccncc2)c2ccccc12` belongs > 4 mM (inactive); to `COc1ccc(Cl)c(S(=O)(=O)N2CCCC2)c1`, > 4 mM (inactive).
To `Cc1cc(C(=O)Nn2cnnc2)cs1` belongs > 4 mM (inactive).
Consider `O=C(NCc1cccs1)c1nn2cccnc2c1Cl`, for which the Kd is > 4 mM (inactive).
`CSc1ccccc1NC(=O)c1ccc(C)o1`: the Kd was > 4 mM (inactive).
To `CN1C(=O)CC[C@H]1c1cccnc1` belongs > 4 mM (inactive); to `O=c1c(O)c(-c2ccc(O)cc2O)oc2cc(O)cc(O)c12`, > 4 mM (inactive).
As to `O=C(O)C1Cc2ccccc2N1` (stereo not given), the Kd is > 4 mM (inactive).
As to `N[C@@H](Cc1ccc(O)c(O)c1)C(=O)O`, the Kd is > 4 mM (inactive).
To `CSc1nnc(-c2ccccc2NC(C)=O)o1` belongs > 4 mM (inactive); to `Cn1nnc2cc(CO)ccc21`, > 4 mM (inactive); to `Nc1ccc(NS(=O)(=O)c2ccc(N)cc2)cc1`, > 4 mM (inactive).
As to `N#Cc1c[nH]n2c(=O)cc(Cc3ccccc3)nc12`, the Kd is > 4 mM (inactive).
To `CNCc1ccco1` belongs > 4 mM (inactive).
Under `O=C1NC(=O)C2C3C=CC(O3)C12` (stereo not given) stands > 4 mM (inactive); under `Cc1nc2cc(NC(=O)Nc3nccs3)ccc2n1C`, > 4 mM (inactive); under `O=C(/C=C/c1ccc(O)c(O)c1)O[C@@H]1C[C@](O)(C(=O)O)C[C@@H](O)[C@H]1O`, > 4 mM (inactive).
Under `Nc1nc2n(c1C(=O)c1ccccc1)CCC2` stands > 4 mM (inactive); under `O=C(O)Cn1c(C(F)(F)F)nc2ccccc21`, > 4 mM (inactive); under `Cc1cc(C)c2nncn2n1`, > 4 mM (inactive).
Turning to `O=c1[nH]cc(NC(=S)N2CCOCC2)c(=O)[nH]1`, the Kd was > 4 mM (inactive).
With `Cn1c(CN2CC(c3ccccc3)CC2=O)n[nH]c1=S` (stereo not given), the Kd is > 4 mM (inactive).
To `O=C(O)Cn1cc(C(=O)C2CC2)c2ccccc21` belongs > 4 mM (inactive); to `O=C(Nc1ccon1)c1cccc(Cl)c1`, > 4 mM (inactive).
With `NC(=O)c1ccsc1NC(=O)C1=COCCO1`, the Kd was > 4 mM (inactive).
Under `Cn1cnc2cc(NC(=O)c3ccco3)ccc21` stands > 4 mM (inactive); under `N#Cc1cnc(N2CCCCC2)nc1N`, > 4 mM (inactive); under `O=c1ccn(Cc2ccccc2)c(=O)n1Cc1ccccc1`, > 4 mM (inactive).
On to `CC1(C)NC(=O)N(CCOc2ccc3c(c2)CCC3)C1=O`, for which the Kd was > 4 mM (inactive).
Consider `Cc1occc1C(=O)Nc1nnc(C2CCCCC2)s1`, for which the Kd was > 4 mM (inactive).
Under `Cc1nnc(NCCN2CCOCC2)[nH]c1=O` stands > 4 mM (inactive); under `NC(=O)C1CCN(c2ncnc(N)c2[N+](=O)[O-])CC1`, > 4 mM (inactive).
In the case of `O=C(O)c1ccccc1C(=O)NCC1CCCO1` (stereo not given), the Kd is > 4 mM (inactive).
Under `Cc1cc(C(=O)NCc2cccs2)c(C)o1` stands > 4 mM (inactive); under `CC1(c2ccncc2)NC(=O)NC1=O` (stereo not given), > 4 mM (inactive).
Turning to `CN(C)C1CCS(=O)(=O)C1` (stereo not given), the Kd is > 4 mM (inactive).
Under `COc1nc(-c2ccccc2)ccc1-c1noc(C)n1` stands > 4 mM (inactive).
Under `NCC(=O)c1ccccc1` stands > 4 mM (inactive).
Under `Cn1c(CO)nc2ccccc21` stands > 4 mM (inactive); under `CC(=O)Oc1ccc(-c2cc(=O)c3c(OC(C)=O)cc(OC(C)=O)cc3o2)cc1`, > 4 mM (inactive).
With `NC(=O)CSc1nnnn1-c1ccccc1`, the Kd is > 4 mM (inactive).
To `CCOC(=O)C1=C(O)CCN(C)C1` belongs > 4 mM (inactive); to `CN1C(=O)Cc2cc(S(N)(=O)=O)ccc21`, > 4 mM (inactive); to `Cc1ccc(N2C(=O)C3C4C=CC(O4)C3C2=O)cc1` (stereo not given), > 4 mM (inactive).
Under `CC(=O)O[C@H]1C[C@@]2(C)[C@@H](C[C@@H](O)C3[C@]2(C)CC[C@H]2[C@H](C)[C@H](O)CC[C@]32C)/C1=C(/CCC=C(C)C)C(=O)O` (stereo not given in full) stands > 4 mM (inactive); under `CCCc1nc2ccccc2c2nc(N)nn12`, > 4 mM (inactive).
As to `CC(=O)Nc1ccc(S(=O)(=O)Nc2cc(C)on2)cc1`, the Kd is > 4 mM (inactive).
To `CC[C@]12CCCN3CCc4c(n(c5ccccc45)[C@](O)(C(=O)OC)C1)[C@@H]32` belongs > 4 mM (inactive); to `CC(=O)O[C@H]1CC[C@@]2(C)C(=CCC3C2CC[C@@]2(C)C3CC[C@@H]2C(C)CCCC(C)C)C1` (stereo not given in full), > 4 mM (inactive); to `Cc1nc(-c2ccccc2)sc1C(N)=O`, > 4 mM (inactive).
Under `COC(=O)Cc1cccc(OC)c1` stands > 4 mM (inactive).
Under `Cc1nc(-c2cccc(N)c2)cs1` stands > 4 mM (inactive); under `[O-][n+]1c2ccccc2[n+]([O-])c2cc(O)ccc21`, > 4 mM (inactive).
Consider `COc1ccc(C(=O)NC2=NCCS2)cc1OC`, for which the Kd is > 4 mM (inactive).
Under `C[N+](C)(C)CC(O)CC(=O)O` (stereo not given) stands > 4 mM (inactive); under `O=C1CCc2ccccc2CN1`, > 4 mM (inactive).
For `NC(=O)CS(=O)(=O)c1ccc(Cl)cc1`, the Kd was > 4 mM (inactive).
Under `O=C(CSC1=NCCS1)N1CCc2ccccc21` stands > 4 mM (inactive); under `Cn1cnc2c(=O)[nH]cc([N+](=O)[O-])c21`, > 4 mM (inactive); under `COc1ccc2c(c1)OCC(Cc1ccc(OC)c(OC)c1)C2=O` (stereo not given), > 4 mM (inactive).
Regarding `Cc1cc(NC(=O)c2cccc(S(C)(=O)=O)c2)no1`, the Kd was > 4 mM (inactive).
To `COc1cccc(N2CCN(C(=O)c3cccnc3)CC2)c1` belongs > 4 mM (inactive); to `CN1CCC(=NNC(=O)c2ccco2)CC1`, > 4 mM (inactive).
For `COc1ccc(C2(C)NC(=O)NC2=O)cc1` (stereo not given), the Kd is > 4 mM (inactive).
For `NC(=O)c1ccc(N2C(=O)C=CC2=O)cc1Cl`, the Kd was > 4 mM (inactive).
Under `O=C(O[C@@H]1Cc2c(O)cc(O)cc2O[C@@H]1c1cc(O)c(O)c(O)c1-c1c([C@H]2Oc3cc(O)cc(O)c3C[C@H]2O)cc(O)c(O)c1O)c1cc(O)c(O)c(O)c1` stands > 4 mM (inactive); under `Cc1ccc(-c2nnc3sc(-c4ccncc4)nn23)cc1`, > 4 mM (inactive).
On to `Cn1cnc2c(=S)[nH]c(=O)n(Cc3ccccc3)c21`, for which the Kd was > 4 mM (inactive).
Under `NCc1ccc(S(=O)(=O)O)cc1` stands > 4 mM (inactive); under `Nc1ncnc2c1ncn2C1C[C@H](O)[C@@H](CO)O1` (stereo not given in full), > 4 mM (inactive); under `CCCn1c(S(=O)(=O)O)nc2ccccc21`, > 4 mM (inactive).
For `CCC(/C=C/[C@@H](C)[C@H]1CCC2C3CC=C4C[C@@H](O)CC[C@]4(C)C3CC[C@@]21C)C(C)C` (stereo not given in full), the Kd was > 4 mM (inactive).
For `C[C@@H]1OC(O[C@H]2C(O[C@H]3CC[C@@]4(C)C(CC[C@]5(C)C4CC=C4C6CC(C)(C)CC[C@]6(C(=O)O)CC[C@]45C)[C@]3(C)CO)OC[C@H](O)[C@@H]2O)[C@H](O)[C@H](O)[C@H]1O` (stereo not given in full), the Kd is > 4 mM (inactive).
`O=C(Nc1cccc(Cl)c1)c1cnn2cccnc12`: the Kd is > 4 mM (inactive).
Under `NC(=O)CN1C(=O)c2cccc3cccc1c23` stands > 4 mM (inactive).
